Numbered stars: 1 amine (or outer) side, 2 acyl side, 3 side chain; on linkers, the order of the positions; unused ones are H or OH. Bridge positions count the residues as written; N and C are the ends. Square brackets hold non-standard residues; d marks the D form. Peptide text beside a SMILES is read from it. Trp(βS-Me,7-OMe) = COc1cccc2c([C@H](C)[C@H](N)C(=O)O)c[nH]c12; Trp(1-CH2COOH) = N[C@@H](Cc1cn(CC(=O)O)c2ccccc12)C(=O)O; Morpholine(3S-CO,6,6-Me2) = CC1(C)CN[C@H](C(=O)O)CO1; Trp(βS-Me) = C[C@@H](c1c[nH]c2ccccc12)[C@H](N)C(=O)O; Trp(7-CN) = N#Cc1cccc2c(C[C@H](N)C(=O)O)c[nH]c12; Trp(7-Cl) = N[C@@H](Cc1c[nH]c2c(Cl)cccc12)C(=O)O; Phe(3-CONH2) = NC(=O)c1cccc(C[C@H](N)C(=O)O)c1; Phe(4-CONH2) = NC(=O)c1ccc(C[C@H](N)C(=O)O)cc1; Phe(4-COOH) = N[C@@H](Cc1ccc(C(=O)O)cc1)C(=O)O; Trp(7-aza) = N[C@@H](Cc1c[nH]c2ncccc12)C(=O)O; Phe(4-CH2NH2) = NCc1ccc(C[C@H](N)C(=O)O)cc1; dPro(4S-NH2) = N[C@@H]1CN[C@@H](C(=O)O)C1; Pip(5R-OH) = O=C(O)[C@@H]1CC[C@@H](O)CN1; X1 = O=C([C@@H]1CC[C@H](N[*:1])C1)[*:2]; 2Nal = N[C@@H](Cc1ccc2ccccc2c1)C(=O)O; 4Pal = N[C@@H](Cc1ccncc1)C(=O)O; NMeE = CN[C@@H](CCC(=O)O)C(=O)O; dHyp = O=C(O)[C@H]1C[C@H](O)CN1; Cit = NC(=O)NCCC[C@H](N)C(=O)O; NEtAla = CCN[C@@H](C)C(=O)O; Pip = O=C(O)[C@@H]1CCCCN1; αMeS = C[C@](N)(CO)C(=O)O; Nle = CCCC[C@H](N)C(=O)O; Sar = CNCC(=O)O
Legend:
human TNFR2 ECD protein = molecular target: T1, human TNFR2 ECD protein (Homo sapiens, UniProt P20333); experiment: SPR off-target binding (selectivity) to human TNFR2 ECD; conditions: biotinylated human TNFR2 ECD on streptavidin chip; read-out: SPR hTNFR2 KD
T1 construct: HRV 3C protease cleavage site (C); 6His (C, cleaved yes); made in house; host or cells: Sf21 insect cells (baculovirus), secreted
T1 sequence (P20333 23-257): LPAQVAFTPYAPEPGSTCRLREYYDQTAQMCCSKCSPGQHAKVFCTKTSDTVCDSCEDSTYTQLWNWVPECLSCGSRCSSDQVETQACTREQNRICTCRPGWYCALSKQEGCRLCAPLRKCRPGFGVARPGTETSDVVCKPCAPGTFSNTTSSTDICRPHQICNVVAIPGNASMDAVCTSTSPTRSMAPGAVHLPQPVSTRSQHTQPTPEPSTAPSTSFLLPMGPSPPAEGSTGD
How it was run: (§1)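 Biotinylated avi-tagged human TNFR1 or TNFR2 ECD, expressed in Sf21 insect cells, captured on streptavidin SPR chip; peptide analytes run in 10 mM HEPES pH 7.4, 150 mM NaCl, 3 mM EDTA, 0.05% P20, 2% DMSO. kon and koff measured, affinity KA calculated.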

[1] = molecular target: T2, human TNFR1 extracellular domain (ECD) protein (Homo sapiens, UniProt P19438); experiment: SPR binding affinity to captured human TNFR1 ECD; conditions: biotinylated human TNFR1 ECD on streptavidin chip; from kon and koff; read-out: SPR hTNFR1 KD
T2 construct: HRV 3C protease cleavage site (C); 6His (C, cleaved yes); made in house; host or cells: Sf21 insect cells (baculovirus), secreted
T2 sequence (P19438 30-211): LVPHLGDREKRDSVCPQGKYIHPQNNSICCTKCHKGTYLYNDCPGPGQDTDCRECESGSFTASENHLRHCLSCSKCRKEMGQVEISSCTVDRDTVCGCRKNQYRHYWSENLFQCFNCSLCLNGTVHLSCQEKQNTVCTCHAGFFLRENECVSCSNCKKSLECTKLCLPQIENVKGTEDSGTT
How it was run: as §1

Row | Structure (SMILES) | Kd (human TNFR2 ECD protein) [nM] | Kd [1] [nM]
1 | CCCC[C@@H]1NC(=O)[C@@H]2CC[C@@H](C2)NC(=O)[C@H]([C@@H](C)c2c[nH]c3c(OC)cccc23)NC(=O)CN(C)C(=O)[C@H](Cc2ccc(C(=O)O)cc2)NC(=O)[C@H](Cc2ccc(C(N)=O)cc2)NC(=O)[C@](C)(CO)NC(=O)[C@H](Cc2c[nH]c3c(C#N)cccc23)NC(=O)[C@H](Cc2ccc(C(=O)O)cc2)NC(=O)[C@H](CC(N)=O)NC(=O)[C@H]2C[C@H](N)CN2C(=O)[C@H](Cc2cn(CC(=O)O)c3ccccc23)NC(=O)[C@@H]2CC[C@@H](O)CN2C(=O)[C@H](Cc2ccncc2)NC1=O [SEQ ID NO. 104] (cyclo([4Pal][Pip(5R-OH)][Trp(1-CH2COOH)][dPro(4S-NH2)]N[Phe(4-COOH)][Trp(7-CN)][αMeS][Phe(4-CONH2)][Phe(4-COOH)][Sar][Trp(βS-Me,7-OMe)][X1][Nle])) | > 1000 | 0.02
2 | CCCC[C@@H]1NC(=O)CSC[C@@H](C(N)=O)NC(=O)[C@H]([C@@H](C)c2c[nH]c3c(OC)cccc23)NC(=O)CN(C)C(=O)[C@H](Cc2ccc(O)cc2)NC(=O)[C@H](Cc2ccc(C(=O)O)cc2)NC(=O)[C@](C)(CO)NC(=O)[C@H](Cc2c[nH]c3c(Cl)cccc23)NC(=O)[C@H](Cc2ccncc2)NC(=O)[C@H](CC(N)=O)NC(=O)[C@H](C)N(CC)C(=O)[C@H](Cc2c[nH]c3ccccc23)NC(=O)[C@@H]2COC(C)(C)CN2C(=O)[C@H](Cc2ccncc2)NC1=O [SEQ ID NO. 183] ({CH2CO}-[Nle][4Pal][Morpholine(3S-CO,6,6-Me2)]W[NEtAla]N[4Pal][Trp(7-Cl)][αMeS][Phe(4-COOH)]Y[Sar][Trp(βS-Me,7-OMe)]C-NH2; thioether N-14) | > 1000 | 0.1
3 | CCCC[C@@H]1NC(=O)[C@@H]2CC[C@@H](C2)NC(=O)[C@H]([C@@H](C)c2c[nH]c3c(OC)cccc23)NC(=O)CN(C)C(=O)[C@H](Cc2ccc(C(N)=O)cc2)NC(=O)[C@H](Cc2ccc(C(N)=O)cc2)NC(=O)[C@](C)(CO)NC(=O)[C@H](Cc2c[nH]c3c(Cl)cccc23)NC(=O)[C@H](Cc2ccc(C(=O)O)cc2)NC(=O)[C@H](CC(N)=O)NC(=O)[C@H]2C[C@H](O)CN2C(=O)[C@H](Cc2c[nH]c3ccccc23)NC(=O)[C@@H]2CC[C@@H](O)CN2C(=O)[C@H](Cc2ccncc2)NC1=O [SEQ ID NO. 196] (cyclo([4Pal][Pip(5R-OH)]W[dHyp]N[Phe(4-COOH)][Trp(7-Cl)][αMeS][Phe(4-CONH2)][Phe(4-CONH2)][Sar][Trp(βS-Me,7-OMe)][X1][Nle])) | > 1000 | 0.05
4 | C[C@@H](c1c[nH]c2ccccc12)[C@@H]1NC(=O)CN(C)C(=O)[C@H](Cc2ccc(CN)cc2)NC(=O)[C@H](Cc2ccc(C(=O)O)cc2)NC(=O)[C@](C)(CO)NC(=O)[C@H](Cc2ccc3ccccc3c2)NC(=O)[C@H](Cc2ccc(CN)cc2)NC(=O)[C@H](CC(N)=O)NC(=O)[C@H]2CCCN2C(=O)[C@H]([C@@H](C)c2c[nH]c3ccccc23)NC(=O)[C@H](CO)NC(=O)[C@H](Cc2ccc(CN)cc2)NC(=O)[C@H](CCCNC(N)=O)NC(=O)CSC[C@@H](C(N)=O)NC1=O [SEQ ID NO. 206] ({CH2CO}-[Cit][Phe(4-CH2NH2)]S[Trp(βS-Me)][dP]N[Phe(4-CH2NH2)][2Nal][αMeS][Phe(4-COOH)][Phe(4-CH2NH2)][Sar][Trp(βS-Me)]C-NH2; thioether N-14) | > 1000 | 3
5 | CCCC[C@@H]1NC(=O)[C@@H]2CC[C@@H](C2)NC(=O)[C@H]([C@@H](C)c2c[nH]c3c(OC)cccc23)NC(=O)CN(C)C(=O)[C@H](Cc2cccc(C(N)=O)c2)NC(=O)[C@H](Cc2ccc(C(=O)O)cc2)NC(=O)[C@](C)(CO)NC(=O)[C@H](Cc2c[nH]c3c(Cl)cccc23)NC(=O)[C@H](Cc2ccncc2)NC(=O)[C@H](CC(N)=O)NC(=O)[C@H](CCC(=O)O)N(C)C(=O)[C@H](Cc2c[nH]c3ccccc23)NC(=O)[C@@H]2CCCCN2C(=O)[C@H](Cc2ccncc2)NC1=O [SEQ ID NO. 221] (cyclo([4Pal][Pip]W[NMeE]N[4Pal][Trp(7-Cl)][αMeS][Phe(4-COOH)][Phe(3-CONH2)][Sar][Trp(βS-Me,7-OMe)][X1][Nle])) | > 1000 | 0.14
6 | CCCC[C@@H]1NC(=O)[C@@H]2CC[C@@H](C2)NC(=O)[C@H]([C@@H](C)c2c[nH]c3c(OC)cccc23)NC(=O)CN(C)C(=O)[C@H](Cc2ccc(C(N)=O)cc2)NC(=O)[C@H](Cc2ccc(C(N)=O)cc2)NC(=O)[C@](C)(CO)NC(=O)[C@H](Cc2c[nH]c3c(C#N)cccc23)NC(=O)[C@H](Cc2ccc(C(=O)O)cc2)NC(=O)[C@H](CC(N)=O)NC(=O)[C@H]2C[C@H](O)CN2C(=O)[C@H](Cc2c[nH]c3ncccc23)NC(=O)[C@@H]2CC[C@@H](O)CN2C(=O)[C@H](Cc2ccncc2)NC1=O [SEQ ID NO. 254] (cyclo([4Pal][Pip(5R-OH)][Trp(7-aza)][dHyp]N[Phe(4-COOH)][Trp(7-CN)][αMeS][Phe(4-CONH2)][Phe(4-CONH2)][Sar][Trp(βS-Me,7-OMe)][X1][Nle])) | > 1000 | 0.02
